Laboratory results taken from patent US9102678B2, “Compounds and methods for inhibiting mitotic progression” (Millennium Pharmaceuticals, Inc., priority 2004, dated 2015).

These compounds were tested against T1, recombinant murine Aurora A enzyme (Mus musculus, UniProt P97477) (assay: Aurora A DELFIA Kinase Assay). Conditions: mouse Aurora A, 250 μM ATP; threshold less than or equal to 100 nM; read-out: IC50.
T1 construct: hexahistidine (His6) (N); made in house; host or cells: insect cells, baculovirus (Bac-to-Bac, Invitrogen)
T1 sequence (P97477 whole entry): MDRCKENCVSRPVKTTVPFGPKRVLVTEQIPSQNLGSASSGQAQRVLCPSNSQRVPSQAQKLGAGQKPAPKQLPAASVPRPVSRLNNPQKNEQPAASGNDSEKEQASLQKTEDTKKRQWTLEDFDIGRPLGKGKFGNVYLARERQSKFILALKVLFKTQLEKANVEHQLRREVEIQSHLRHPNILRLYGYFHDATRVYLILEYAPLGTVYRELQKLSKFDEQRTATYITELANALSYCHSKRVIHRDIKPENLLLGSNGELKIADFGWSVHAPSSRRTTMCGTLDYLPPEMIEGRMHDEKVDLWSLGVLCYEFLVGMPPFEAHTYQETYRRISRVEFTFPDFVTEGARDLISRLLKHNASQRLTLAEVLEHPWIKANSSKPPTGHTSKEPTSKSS
Assay type: biochemical

SMILES | IC50 [nM]
O=C(O)C1CN(C(=O)c2ccc(Nc3ncc4c(n3)-c3ccc(Cl)cc3C(c3c(F)cccc3F)=NC4)cc2)CCN1 (stereo not drawn) [Compound I-266, 4-(4-{[9-chloro-7-(2,6-difluorophenyl)-5H-pyrimido[5,4-d][2]benzazepin-2-yl]amino}benzoyl)piperazine-2-carboxylic acid] | ≤ 100
NC1CCN(C(=O)c2ccc(Nc3ncc4c(n3)-c3ccc(Cl)cc3C(c3ncccc3F)=NC4)cc2)C1 (stereo not drawn) [Compound I-305] | ≤ 100
CN(C)C1CN(C(=N)NC(=O)c2ccc(Nc3ncc4c(n3)-c3ccc(Cl)cc3C(c3c(F)cccc3F)=NC4)cc2)C1 [Compound I-259, 4-{[9-chloro-7-(2,6-difluorophenyl)-5H-pyrimido[5,4-d][2]benzazepin-2-yl]amino}-N-[[3-(dimethylamino)azetidin-1-yl](imino)methyl]benzamide] | ≤ 100
COc1cccc(F)c1C1=NCc2cnc(Nc3ccc(C(=O)N4CCNCC4)cc3)nc2-c2ccc(Cl)cc21 [Compound I-243, 9-chloro-7-(2-fluoro-6-methoxyphenyl)-N-[4-(piperazin-1-ylcarbonyl)phenyl]-5H-pyrimido[5,4-d][2]benzazepin-2-amine] | ≤ 100
CNC(=O)c1ccc2c(c1)C(c1c(F)cccc1F)=NCc1cnc(Nc3ccc(C(=O)N4CC(C)NC(C)C4)cc3)nc1-2 (stereo not drawn) [Compound I-376, 7-(2,6-difluorophenyl)-2-({4-[(3,5-dimethylpiperazin-1-yl)carbonyl]phenyl}amino)-N-methyl-5H-pyrimido[5,4-d][2]benzazepine-9-carboxamide] | ≤ 100
COc1cccc(F)c1C1=NCc2cnc(Nc3ccc(C(=O)N4CC(N(C)C)C4)cc3)nc2-c2ccc(Cl)cc21 [Compound I-179, 9-Chloro-N-(4-{[3-(dimethylamino)azetidin-1-yl]carbonyl}phenyl)-7-(2-fluoro-6-methoxyphenyl)-5H-pyrimido[5,4-d][2]benzazepin-2-amine] | ≤ 100
CC1CN(C(=O)c2ccc(Nc3ncc4c(n3)-c3ccc(Cl)cc3C(c3ccc(F)cc3F)=NC4)cc2)CC(C)N1 (stereo not drawn) [Compound I-321, 9-chloro-7-(2,4-difluorophenyl)-N-{4-[(3,5-dimethylpiperazin-1-yl)carbonyl]phenyl}-5H-pyrimido[5,4-d][2]benzazepin-2-amine] | ≤ 100
CNC1CCCN(C(=O)c2ccc(Nc3ncc4c(n3)-c3ccc(Cl)cc3C(c3c(F)cccc3F)=NC4)cc2)C1 (stereo not drawn) [Compound I-253, 9-chloro-7-(2,6-difluorophenyl)-N-(4-{[3-(methylamino)piperidin-1-yl]carbonyl}phenyl)-5H-pyrimido[5,4-d][2]benzazepin-2-amine] | ≤ 100
CNCCCN(C)C(=O)c1ccc(Nc2ncc3c(n2)-c2ccc(Cl)cc2C(c2c(F)cccc2F)=NC3)cc1 [Compound I-198, 4-[9-Chloro-7-(2,6-difluoro-phenyl)-5H-benzo[c]pyrimido[4,5-e]azepin-2-ylamino]-N-methyl-N-(3-methylamino-propyl)-benzamide] | ≤ 100
CN(C)C1CCN(C(=O)c2ccc(Nc3ncc4c(n3)-c3ccc(Cl)cc3C(c3c(F)cccc3F)=NC4)cc2Cl)C1 (stereo not drawn) [Compound I-215, 9-chloro-N-(3-chloro-4-{[3-(dimethylamino)pyrrolidin-1-yl]carbonyl}phenyl)-7-(2,6-difluorophenyl)-5H-pyrimido[5,4-d][2]benzazepin-2-amine] | ≤ 100
NC1(C(=O)O)CCN(C(=O)c2ccc(Nc3ncc4c(n3)-c3ccc(Cl)cc3C(c3c(F)cccc3F)=NC4)cc2)CC1 [Compound I-295, 4-amino-1-(4-{[9-chloro-7-(2,6-difluorophenyl)-5H-pyrimido[5,4-d][2]benzazepin-2-yl]amino}benzoyl)piperidine-4-carboxylic acid] | ≤ 100
CC1CN(C(=N)NC(=O)c2ccc(Nc3ncc4c(n3)-c3ccc(Cl)cc3C(c3c(F)cccc3F)=NC4)cc2)CC(C)N1 (stereo not drawn) [Compound I-238, 4-{[9-chloro-7-(2,6-difluorophenyl)-5H-pyrimido[5,4-d][2]benzazepin-2-yl]amino}-N-[(3,5-dimethylpiperazin-1-yl)(imino)methyl]benzamide] | ≤ 100
Cc1ccc2c(c1)C(c1ccccc1F)=NCc1cnc(Nc3ccc(C(=O)NCCCN4CCN(C)CC4)cc3)nc1-2 [Compound I-24, 4-[7-(2-Fluoro-phenyl)-9-methyl-5H-benzo[c]pyrimido[4,5-e]azepin-2-ylamino]-N-[3-(4-methyl-piperazin-1-yl)-propyl]-benzamide] | ≤ 100
C[C@@H]1CN(C(=O)c2ccc(Nc3ncc4c(n3)-c3ccc(Cl)cc3C(c3c(F)cccc3F)=NC4)cc2)CCN1 [Compound I-194, {4-[9-Chloro-7-(2,6-difluoro-phenyl)-5H-benzo[c]pyrimido[4,5-e]azepin-2-ylamino]-phenyl}-(3(R)-methyl-piperazin-1-yl)-methanone] | ≤ 100
COc1cccc(F)c1C1=NCc2cnc(Nc3ccc(C(=O)N(C)CCCN(C)C)cc3)nc2-c2ccc(Cl)cc21 [Compound I-225, 4-{[9-chloro-7-(2-fluoro-6-methoxyphenyl)-5H-pyrimido[5,4-d][2]benzazepin-2-yl]amino}-N-[3-(dimethylamino)propyl]-N-methylbenzamide] | ≤ 100

The remaining lines, values ahead:

IC50 [nM] | SMILES
≤ 100 | COc1ccccc1C1=NCc2cnc(Nc3ccc(C(=O)NCCCN4CCOCC4)cc3)nc2-c2ccc(Cl)cc21 [Compound I-32, 4-[9-Chloro-7-(2-methoxy-phenyl)-5H-benzo[c]pyrimido[4,5-e]azepin-2-ylamino]-N-(3-morpholin-4-yl-propyl)-benzamide]
≤ 100 | O=C(O)c1ccc(Nc2ncc3c(n2)-c2ccc(Cl)cc2C(c2ncccc2F)=NC3)cc1 [Compound I-301, 4-{[9-chloro-7-(3-fluoropyridin-2-yl)-5H-pyrimido[5,4-d][2]benzazepin-2-yl]amino}benzoic acid]
≤ 100 | COc1cccc(Nc2ncc3c(n2)-c2ccc(C(=O)O)cc2C(c2c(F)cccc2F)=NC3)c1 [Compound I-353, 7-(2,6-difluorophenyl)-2-[(3-methoxyphenyl)amino]-5H-pyrimido[5,4-d][2]benzazepine-9-carboxylic acid]
≤ 100 | Cc1ccc2c(c1)C(c1ccccc1F)=NCc1cnc(Nc3ccc(C(=O)N4CCN(C)CC4)cc3)nc1-2 [Compound I-14, {4-[7-(2-Fluoro-phenyl)-9-methyl-5H-benzo[c]pyrimido[4,5-e]azepin-2-ylamino]-phenyl}-(4-methyl-piperazin-1-yl)-methanone]
≤ 100 | CN1CCN(C(=O)c2ccc(Nc3ncc4c(n3)-c3ccc(Cl)cc3C(c3ccccc3Cl)=NC4)cc2)CC1 [Compound I-10, {4-[9-Chloro-7-(2-chloro-phenyl)-5H-benzo[c]pyrimido[4,5-e]azepin-2-ylamino]-phenyl}-(4-methyl-piperazin-1-yl)-methanone]
≤ 100 | CNC1CCN(C(=O)c2ccc(Nc3ncc4c(n3)-c3ccc(Cl)cc3C(c3c(F)cccc3Cl)=NC4)cc2)C1 (stereo not drawn) [Compound I-327, 9-chloro-7-(2-chloro-6-fluorophenyl)-N-(4-{[3-(methylamino)pyrrolidin-1-yl]carbonyl}phenyl)-5H-pyrimido[5,4-d][2]benzazepin-2-amine]
≤ 100 | NC1CCN(C(=O)c2cc(Nc3ncc4c(n3)-c3ccc(Cl)cc3C(c3c(F)cccc3F)=NC4)ccc2Cl)CC1 [Compound I-292, N-{3-[(4-aminopiperidin-1-yl)carbonyl]-4-chlorophenyl}-9-chloro-7-(2,6-difluorophenyl)-5H-pyrimido[5,4-d][2]benzazepin-2-amine]
≤ 100 | NC1CCN(C(=O)c2ccc(Nc3ncc4c(n3)-c3ccc(Cl)cc3C(c3ccccc3C(F)(F)F)=NC4)cc2)C1 (stereo not drawn) [Compound I-289, N-{4-[(3-aminopyrrolidin-1-yl)carbonyl]phenyl}-9-chloro-7-[2-(trifluoromethyl)phenyl]-5H-pyrimido[5,4-d][2]benzazepin-2-amine]
≤ 100 | NC(=O)Cc1cccc(Nc2ncc3c(n2)-c2ccc(Cl)cc2C(c2ccccc2Cl)=NC3)c1 [Compound I-66, 2-{3-[9-Chloro-7-(2-chloro-phenyl)-5H-benzo[c]pyrimido[4,5-e]azepin-2-ylamino]-phenyl}-acetamide]
≤ 100 | CN(C)CC1CN(C(=O)c2ccc(Nc3ncc4c(n3)-c3ccc(Cl)cc3C(c3ccccc3F)=NC4)cc2)C1 [Compound I-193, {4-[9-Chloro-7-(2-fluoro-phenyl)-5H-benzo[c]pyrimido[4,5-e]azepin-2-ylamino]-phenyl}-(3-dimethylaminomethyl-azetidin-1-yl)-methanone]
≤ 100 | CNC1CCCN(C(=O)c2ccc(Nc3ncc4c(n3)-c3ccc(Cl)cc3C(c3c(F)cccc3Cl)=NC4)cc2)C1 (stereo not drawn) [Compound I-326, 9-chloro-7-(2-chloro-6-fluorophenyl)-N-(4-{[3-(methylamino)piperidin-1-yl]carbonyl}phenyl)-5H-pyrimido[5,4-d][2]benzazepin-2-amine]
≤ 100 | CNCCN(C)C(=O)c1cc(Nc2ncc3c(n2)-c2ccc(Cl)cc2C(c2c(F)cccc2F)=NC3)ccc1Cl [Compound I-283, 2-chloro-5-{[9-chloro-7-(2,6-difluorophenyl)-5H-pyrimido[5,4-d][2]benzazepin-2-yl]amino}-N-methyl-N-[2-(methylamino)ethyl]benzamide]
≤ 100 | COc1cccc(Nc2ncc3c(n2)-c2ccc(C(=O)O)cc2C(c2ccccc2F)=NC3)c1 [Compound I-256, 7-(2-fluorophenyl)-2-[(3-methoxyphenyl)amino]-5H-pyrimido[5,4-d][2]benzazepine-9-carboxylic acid]
≤ 100 | CN(C)CC#Cc1cccc(Nc2ncc3c(n2)-c2ccc(Cl)cc2C(c2c(F)cccc2F)=NC3)c1 [Compound I-343, 9-chloro-7-(2,6-difluorophenyl)-N-{3-[3-(dimethylamino)prop-1-yn-1-yl]phenyl}-5H-pyrimido[5,4-d][2]benzazepin-2-amine]
≤ 100 | O=C(O)c1ccc(Nc2ncc3c(n2)-c2ccc(Cl)cc2C(c2c(F)cccc2Cl)=NC3)cc1 [Compound I-174, 4-{[9-Chloro-7-(2-chloro-6-fluorophenyl)-5H-pyrimido-[5,4-d][2]benzazepin-2-yl]amino}benzoic acid]
